Results on 1 substance are retold here after patent US7119077B1, “Multimeric forms of members of the steroid/thyroid superfamily of receptors with the ultraspiracle receptor” (The Salk Institute for Biological Studies, priority 1990, dated 2006).

Assay [1] concerns the target T1, GEcR/usp (UniProt P04150+P34021, C431Y/E427R/G434N/G439E/K419E/P331L/P416R/S425G/S440G/V435A/V443G).
T1 construct: expressed in transfected cells; host or cells: CV1 monkey kidney cells
T1 sequence (P04150+P34021 with tags, fused parts or gaps P04150:P416R/P04150:K419E/P04150:S425G/P04150:E427R/P04150:C431Y/P04150:G434N/P04150:V435A/P04150:G439E/P04150:S440G/P04150:V443G/P34021:P331L): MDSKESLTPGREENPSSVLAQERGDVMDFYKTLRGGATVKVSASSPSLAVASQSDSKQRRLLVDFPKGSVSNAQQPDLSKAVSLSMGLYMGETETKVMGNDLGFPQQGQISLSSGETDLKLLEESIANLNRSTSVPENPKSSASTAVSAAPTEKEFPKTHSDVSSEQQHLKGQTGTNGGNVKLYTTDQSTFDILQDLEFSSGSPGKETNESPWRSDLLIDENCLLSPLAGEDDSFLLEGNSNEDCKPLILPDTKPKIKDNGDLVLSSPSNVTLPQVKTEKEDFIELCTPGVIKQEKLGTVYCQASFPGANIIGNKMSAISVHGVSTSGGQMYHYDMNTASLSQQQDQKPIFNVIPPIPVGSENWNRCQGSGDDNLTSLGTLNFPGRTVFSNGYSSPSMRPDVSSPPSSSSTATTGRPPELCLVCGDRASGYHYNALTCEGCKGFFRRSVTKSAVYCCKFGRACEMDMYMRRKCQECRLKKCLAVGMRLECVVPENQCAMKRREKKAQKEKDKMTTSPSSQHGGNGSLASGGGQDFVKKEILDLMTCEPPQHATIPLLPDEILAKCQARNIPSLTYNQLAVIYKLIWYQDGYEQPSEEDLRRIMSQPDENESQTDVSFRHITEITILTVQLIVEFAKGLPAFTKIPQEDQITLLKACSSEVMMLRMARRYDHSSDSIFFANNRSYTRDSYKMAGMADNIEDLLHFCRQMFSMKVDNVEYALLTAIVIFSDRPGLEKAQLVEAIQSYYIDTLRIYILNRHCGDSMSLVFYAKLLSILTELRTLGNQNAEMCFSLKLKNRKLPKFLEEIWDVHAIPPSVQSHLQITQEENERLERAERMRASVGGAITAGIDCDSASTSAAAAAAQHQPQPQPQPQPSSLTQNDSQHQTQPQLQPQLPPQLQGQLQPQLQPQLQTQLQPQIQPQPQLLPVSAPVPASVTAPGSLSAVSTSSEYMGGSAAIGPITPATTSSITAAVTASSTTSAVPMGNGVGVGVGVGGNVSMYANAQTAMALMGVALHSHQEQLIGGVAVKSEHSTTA
Briefly: Cotransfection CAT reporter assay with GEcR (GR N-terminal domain fused to EcR) and usp in CV1 cells. Particulars: CV1 cells transfected with GEcR alone. The assay is classed as cell-based, Drosophila. The source says:
(§1) GEcR was constructed by ligation of a NotI/BamHI fragment containing the DNA and hormone binding domains of a modified EcR cDNA, EcRnx, in place of the DNA and hormone binding domains of the similarly modified glucocorticoid receptor expression construct pRShGRnx [Giguére et al., Nature Vol. 330:624–629 (1987)]. The modified receptor cDNA was constructed using the site-directed mutagenesis procedure of Kunkel, T. A., Proc. Natl. Acad. Sci. USA Vol. 82:[…] (1985) to insert NotI (employing SEQ ID NO:23 as the oligonucleotide template) and XhoI (employing SEQ ID NO:24 as the oligonucleotide template) sites immediately flanking the DNA binding domain. SEQ ID NO:23 is:
(§2) Transfection was performed with calcium-phosphate precipitation method as described previously [Umesono et al., Nature 336:262–264 (1989)]. […] Beta-galactosidase (βGal) activity was measured and a normalized amount of extract was used for CAT assay (Umesono et al. (1989) supra]. The following amount of plasmid DNA was included in the 10 cm plate transfection: 250 ng each of CMX-EcR and RSV-GEcR; 500 ng of CMX-usp; 5 μg ΔMTV-EcRE5-CTA; 5 μg of βGal internal control plasmid CH111 (a derivative of CH110, Promega). The amount of CMX plasmid was kept constant in each transfection by adding CMX-luciferase. PGEM4 was added to bring the total amount of plasmid DNA to 15 μg per plate. […]
A general note: Reporter assays use an easily measured gene product as a stand-in for the process of interest.

Assay [2] addresses T2, GEcR/usp (UniProt P04150+P34021, C431Y/E427R/G434N/G439E/K419E/P331L/P416R/S425G/S440G/V435A/V443G).
T2 construct: expressed in transfected cells; host or cells: CV1 monkey kidney cells
T2 sequence (P04150+P34021 with tags, fused parts or gaps P04150:P416R/P04150:K419E/P04150:S425G/P04150:E427R/P04150:C431Y/P04150:G434N/P04150:V435A/P04150:G439E/P04150:S440G/P04150:V443G/P34021:P331L): T1 sequence (P04150+P34021 with tags, fused parts or gaps P04150:P416R/P04150:K419E/P04150:S425G/P04150:E427R/P04150:C431Y/P04150:G434N/P04150:V435A/P04150:G439E/P04150:S440G/P04150:V443G/P34021:P331L)
T2 sequence (P20153 1-508 partner): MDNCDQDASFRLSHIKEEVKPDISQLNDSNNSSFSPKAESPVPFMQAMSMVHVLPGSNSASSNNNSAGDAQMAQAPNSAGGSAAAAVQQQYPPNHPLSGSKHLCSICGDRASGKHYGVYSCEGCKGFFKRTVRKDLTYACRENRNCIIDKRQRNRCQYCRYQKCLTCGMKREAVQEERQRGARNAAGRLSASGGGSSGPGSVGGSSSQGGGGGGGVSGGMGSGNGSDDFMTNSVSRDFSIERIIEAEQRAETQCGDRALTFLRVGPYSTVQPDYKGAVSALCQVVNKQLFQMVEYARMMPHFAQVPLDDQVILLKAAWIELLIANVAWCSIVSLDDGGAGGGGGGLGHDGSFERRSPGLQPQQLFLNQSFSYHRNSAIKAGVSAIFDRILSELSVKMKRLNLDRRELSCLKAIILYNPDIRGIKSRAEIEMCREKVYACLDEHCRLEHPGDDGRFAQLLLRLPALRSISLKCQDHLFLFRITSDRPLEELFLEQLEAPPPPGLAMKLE
The description is as above. The assay is classed as cell-based, Drosophila. The following applies: CV1 cells cotransfected with GEcR and usp expression plasmid, EcRE reporter.
Source text: as §1, §2

On to 20-Hydroxyecdysone [20-OH-ecdysone], for which the “ecdysone response (CAT activity)” value at GEcR/usp [1] is “failed to confer ecdysone response”. The “induction of CAT activity” value on GEcR/usp [2] is reported as 8–10 fold.
